Measurements as given in patent publication US8802597B2, “Herbicidal pyrimidines” (E I du Pont de Nemours and Company, priority 2003, dated 2014).
Like-named read-outs stand apart in the source and are kept apart here.

How the values were obtained:
Assay in all cases: Test C pre/postemergence
Format in all cases: in vivo
[1] = test system: kochia (Kochia scoparia); settings: Bassia scoparia; for pest or weed control at 16 g/ha: 16 g ai/ha; for pest or weed control at 31 g/ha: 31 g ai/ha; for pest or weed control at 62 g/ha: 62 g ai/ha; for pest or weed control at 125 g/ha: 125 g ai/ha
In short: (§1)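 Test compounds, formulated in a non-phytotoxic solvent mix with surfactant, were applied to freshly planted seeds and, at the same time, to emerged plants at 1- to 4-leaf stage (2 to 18 cm). After 12 to 14 days in the greenhouse, response was scored visually versus controls, 0 = no effect, 100 = complete control.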

[2] = test system: morningglory (Ipomoea coccinea); settings: Ipomoea; for pest or weed control at 16 g/ha: 16 g ai/ha; for pest or weed control at 31 g/ha: 31 g ai/ha; for pest or weed control at 62 g/ha: 62 g ai/ha; for pest or weed control at 125 g/ha: 125 g ai/ha
In short: as §1

[3] = test system: johnsongrass (Sorghum halepense); settings: Sorghum halepense; for pest or weed control at 16 g/ha: 16 g ai/ha; for pest or weed control at 31 g/ha: 31 g ai/ha; for pest or weed control at 62 g/ha: 62 g ai/ha; for pest or weed control at 125 g/ha: 125 g ai/ha
In short: as §1

[4] = test system: crabgrass (Digitaria sanguinalis); settings: Digitaria sanguinalis; for pest or weed control at 16 g/ha: 16 g ai/ha; for pest or weed control at 31 g/ha: 31 g ai/ha; for pest or weed control at 62 g/ha: 62 g ai/ha; for pest or weed control at 125 g/ha: 125 g ai/ha
In short: as §1

[5] = test system: pigweed (Amaranthus retroflexus); settings: Amaranthus retroflexus; for pest or weed control at 16 g/ha: 16 g ai/ha; for pest or weed control at 31 g/ha: 31 g ai/ha; for pest or weed control at 62 g/ha: 62 g ai/ha
In short: as §1

[6] = test system: woolly cupgrass (Eriochloa villosa); settings: Eriochloa villosa; for pest or weed control at 16 g/ha: 16 g ai/ha; for pest or weed control at 31 g/ha: 31 g ai/ha; for pest or weed control at 62 g/ha: 62 g ai/ha; for pest or weed control at 125 g/ha: 125 g ai/ha
In short: as §1

[7] = test system: goosegrass (Eleusine indica); settings: Eleusine indica; for pest or weed control at 16 g/ha: 16 g ai/ha; for pest or weed control at 31 g/ha: 31 g ai/ha; for pest or weed control at 62 g/ha: 62 g ai/ha; for pest or weed control at 125 g/ha: 125 g ai/ha
In short: as §1

[8] = test system: bermudagrass (Cynodon dactylon); settings: Cynodon dactylon; for pest or weed control at 16 g/ha: 16 g ai/ha; for pest or weed control at 31 g/ha: 31 g ai/ha; for pest or weed control at 62 g/ha: 62 g ai/ha; for pest or weed control at 125 g/ha: 125 g ai/ha
In short: as §1

[9] = test system: giant foxtail (Setaria faberii); settings: Setaria faberi; for pest or weed control at 125 g/ha: 125 g ai/ha; for pest or weed control at 16 g/ha: 16 g ai/ha; for pest or weed control at 31 g/ha: 31 g ai/ha; for pest or weed control at 62 g/ha: 62 g ai/ha
In short: as §1

[10] = test system: common (oilseed) sunflower (Helianthus annuus); settings: Helianthus annuus, pre-emergence, Preemergence, scale 0 to 100, 0 no effect, 100 complete control, read-out: Plant response rating, Sunflower
In short: as §1

[11] = test system: Surinam grass (Brachiaria decumbens); settings: Urochloa decumbens; for pest or weed control at 16 g/ha: 16 g ai/ha; for pest or weed control at 31 g/ha: 31 g ai/ha; for pest or weed control at 62 g/ha: 62 g ai/ha
In short: as §1

[12] = test system: soybean (Glycine max); settings: Glycine max; for plant injury at 16 g/ha: 16 g ai/ha; for plant injury at 31 g/ha: 31 g ai/ha; for plant injury at 62 g/ha: 62 g ai/ha
In short: as §1

[13] = post-emergence, Postemergence, read-out: Plant response rating (scale of 0 to 100), Kochia
[14] = pre-emergence, Preemergence, scale 0 to 100, 0 no effect, 100 complete control, read-out: Plant response rating, Kochia
[15] = post-emergence, Postemergence, read-out: Plant response rating (scale of 0 to 100), Morningglory
[16] = pre-emergence, Preemergence, scale 0 to 100, 0 no effect, 100 complete control, read-out: Plant response rating, Morningglory
[17] = post-emergence, Postemergence, read-out: Plant response rating (scale of 0 to 100), Johnsongrass
[18] = pre-emergence, Preemergence, scale 0 to 100, 0 no effect, 100 complete control, read-out: Plant response rating, Johnsongrass
[19] = post-emergence, Postemergence, read-out: Plant response rating (scale of 0 to 100), Crabgrass
[20] = pre-emergence, Preemergence, scale 0 to 100, 0 no effect, 100 complete control, read-out: Plant response rating, Crabgrass
[21] = post-emergence, Postemergence, read-out: Plant response rating (scale of 0 to 100), Pigweed
[22] = pre-emergence, Preemergence, scale 0 to 100, 0 no effect, 100 complete control, read-out: Plant response rating, Pigweed
[23] = post-emergence, Postemergence, read-out: Plant response rating (scale of 0 to 100), Cupgrass, Woolly
[24] = pre-emergence, Preemergence, scale 0 to 100, 0 no effect, 100 complete control, read-out: Plant response rating, Cupgrass, Woolly
[25] = post-emergence, Postemergence, read-out: Plant response rating (scale of 0 to 100), Goosegrass
[26] = pre-emergence, Preemergence, scale 0 to 100, 0 no effect, 100 complete control, read-out: Plant response rating, Goosegrass
[27] = post-emergence, Postemergence, read-out: Plant response rating (scale of 0 to 100), Bermudagrass
[28] = post-emergence, Postemergence, scale 0 to 100 (0 no effect, 100 complete control), read-out: Bermudagrass plant response rating
[29] = pre-emergence, Preemergence, scale 0 to 100, 0 no effect, 100 complete control, read-out: Plant response rating, Bermudagrass
[30] = post-emergence, Postemergence, read-out: Plant response rating (scale of 0 to 100), Foxtail, Giant
[31] = pre-emergence, Preemergence, scale 0 to 100, 0 no effect, 100 complete control, read-out: Plant response rating, Foxtail, Giant
[32] = post-emergence, Postemergence, read-out: Plant response rating (scale of 0 to 100), Surinam Grass
[33] = pre-emergence, Preemergence, scale 0 to 100, 0 no effect, 100 complete control, read-out: Plant response rating, Surinam Grass
[34] = post-emergence, Postemergence, read-out: Plant response rating (scale of 0 to 100), Soybean
[35] = pre-emergence, Preemergence, scale 0 to 100, 0 no effect, 100 complete control, read-out: Plant response rating, Soybean

## Nc1nc(-c2ccc(Cl)cc2)nc(C(=O)O)c1Cl [Compound 65, 6-amino-5-chloro-2-(4-chlorophenyl)-4-pyrimidinecarboxylic acid]
[1]; [13]
  pest or weed control at 16 g/ha: 85%
  pest or weed control at 31 g/ha: 85%
  pest or weed control at 62 g/ha: 85%
[1]; post-emergence, Postemergence, scale 0 to 100 (0 no effect, 100 complete control), read-out: Kochia plant response rating
  pest or weed control at 125 g/ha: 90%
[1]; [14]
  pest or weed control at 16 g/ha: 0%
  pest or weed control at 31 g/ha: 0%
  pest or weed control at 62 g/ha: 50%
[1]; pre-emergence, Preemergence, scale 0 to 100, read-out: Plant response rating, Kochia
  pest or weed control at 125 g/ha: 70%
[2]; [15]
  pest or weed control at 16 g/ha: 90%
  pest or weed control at 31 g/ha: 90%
  pest or weed control at 62 g/ha: 90%
[2]; post-emergence, Postemergence, scale 0 to 100 (0 no effect, 100 complete control), read-out: Morningglory plant response rating
  pest or weed control at 125 g/ha: 95%
[2]; [16]
  pest or weed control at 16 g/ha: 0%
  pest or weed control at 31 g/ha: 0%
  pest or weed control at 62 g/ha: 20%
[2]; pre-emergence, Preemergence, scale 0 to 100, read-out: Plant response rating, Morningglory
  pest or weed control at 125 g/ha: 100%
[3]; [17]
  pest or weed control at 16 g/ha: 45%
  pest or weed control at 31 g/ha: 60%
  pest or weed control at 62 g/ha: 85%
[3]; post-emergence, Postemergence, scale 0 to 100 (0 no effect, 100 complete control), read-out: Johnsongrass plant response rating
  pest or weed control at 125 g/ha: 85%
[3]; [18]
  pest or weed control at 16 g/ha: 0%
  pest or weed control at 31 g/ha: 50%
  pest or weed control at 62 g/ha: 60%
[3]; pre-emergence, Preemergence, scale 0 to 100, read-out: Plant response rating, Johnsongrass
  pest or weed control at 125 g/ha: 70%
[4]; [19]
  pest or weed control at 16 g/ha: 80%
  pest or weed control at 31 g/ha: 80%
  pest or weed control at 62 g/ha: 90%
[4]; post-emergence, Postemergence, scale 0 to 100 (0 no effect, 100 complete control), read-out: Crabgrass plant response rating
  pest or weed control at 125 g/ha: 90%
[4]; [20]
  pest or weed control at 16 g/ha: 0%
  pest or weed control at 31 g/ha: 20%
  pest or weed control at 62 g/ha: 70%
[4]; pre-emergence, Preemergence, scale 0 to 100, read-out: Plant response rating, Crabgrass
  pest or weed control at 125 g/ha: 80%
[5]; [21]
  pest or weed control at 16 g/ha: 90%
  pest or weed control at 31 g/ha: 90%
  pest or weed control at 62 g/ha: 100%
[5]; post-emergence, Postemergence, 125 g ai/ha, scale 0 to 100 (0 no effect, 100 complete control), read-out: Pigweed plant response rating
  pest or weed control at 125 g/ha: 100%
[5]; [22]
  pest or weed control at 16 g/ha: 40%
  pest or weed control at 31 g/ha: 80%
  pest or weed control at 62 g/ha: 80%
[6]; [23]
  pest or weed control at 16 g/ha: 60%
  pest or weed control at 31 g/ha: 80%
  pest or weed control at 62 g/ha: 85%
[6]; post-emergence, Postemergence, scale 0 to 100 (0 no effect, 100 complete control), read-out: Cupgrass, Woolly plant response rating
  pest or weed control at 125 g/ha: 85%
[6]; [24]
  pest or weed control at 16 g/ha: 0%
  pest or weed control at 31 g/ha: 0%
  pest or weed control at 62 g/ha: 5%
[6]; pre-emergence, Preemergence, scale 0 to 100, read-out: Plant response rating, Cupgrass, Woolly
  pest or weed control at 125 g/ha: 70%
[7]; [25]
  pest or weed control at 16 g/ha: 50%
  pest or weed control at 31 g/ha: 50%
  pest or weed control at 62 g/ha: 70%
[7]; post-emergence, Postemergence, scale 0 to 100 (0 no effect, 100 complete control), read-out: Goosegrass plant response rating
  pest or weed control at 125 g/ha: 70%
[7]; [26]
  pest or weed control at 16 g/ha: 0%
  pest or weed control at 31 g/ha: 0%
  pest or weed control at 62 g/ha: 0%
[7]; pre-emergence, Preemergence, scale 0 to 100, read-out: Plant response rating, Goosegrass
  pest or weed control at 125 g/ha: 50%
[8]; [27]
  pest or weed control at 16 g/ha: 60%
  pest or weed control at 31 g/ha: 60%
[8]; [28]
  pest or weed control at 62 g/ha: 70%
  pest or weed control at 125 g/ha: 70%
[8]; [29]
  pest or weed control at 16 g/ha: 0%
  pest or weed control at 31 g/ha: 50%
  pest or weed control at 62 g/ha: 70%
[8]; pre-emergence, Preemergence, scale 0 to 100, read-out: Plant response rating, Bermudagrass
  pest or weed control at 125 g/ha: 80%
[9]; post-emergence, Postemergence, scale 0 to 100 (0 no effect, 100 complete control), read-out: Foxtail, Giant plant response rating
  pest or weed control at 125 g/ha: 70%
[9]; [30]
  pest or weed control at 16 g/ha: 50%
  pest or weed control at 31 g/ha: 60%
  pest or weed control at 62 g/ha: 70%
[9]; [31]
  pest or weed control at 16 g/ha: 0%
  pest or weed control at 31 g/ha: 10%
  pest or weed control at 62 g/ha: 50%
[9]; pre-emergence, Preemergence, scale 0 to 100, read-out: Plant response rating, Foxtail, Giant
  pest or weed control at 125 g/ha: 60%
[10]; 16 g ai/ha
  pest or weed control at 16 g/ha: 40%
[10]; 31 g ai/ha
  pest or weed control at 31 g/ha: 70%
[10]; 62 g ai/ha
  pest or weed control at 62 g/ha: 95%
[11]; post-emergence, Postemergence, 125 g ai/ha, scale 0 to 100 (0 no effect, 100 complete control), read-out: Surinam Grass plant response rating
  pest or weed control at 125 g/ha: 80%
[11]; [32]
  pest or weed control at 16 g/ha: 60%
  pest or weed control at 31 g/ha: 80%
  pest or weed control at 62 g/ha: 80%
[11]; [33]
  pest or weed control at 16 g/ha: 0%
  pest or weed control at 31 g/ha: 40%
  pest or weed control at 62 g/ha: 80%
[12]; [34]
  plant injury at 16 g/ha: 100%
  plant injury at 31 g/ha: 100%
  plant injury at 62 g/ha: 100%
[12]; post-emergence, Postemergence, 125 g ai/ha, scale 0 to 100 (0 no effect, 100 complete control), read-out: Soybean plant response rating
  plant injury at 125 g/ha: 100%
[12]; [35]
  plant injury at 16 g/ha: 85%
  plant injury at 31 g/ha: 95%
  plant injury at 62 g/ha: 95%
